Patent US20210113529A1, “MEDICINE FOR PREVENTING OR TREATING OPHTHALMIC DISEASE ASSOCIATED WITH ENHANCED INTRAOCULAR NEOVASCULARIZATION AND/OR INTRAOCULAR VASCULAR PERMEABILITY” (KYOTO UNIVERSITY, priority 2018, published 2021)

What was measured:
[1] = system: human retinal vascular endothelial cells (HRMECs); experiment: Permeability of human retinal vascular endothelial cells (Transwell, FITC-dextran); type: cell-based; conditions: HRMECs in Transwell; 0.3 nM, 3 nM or 30 nM; 60 minutes pre-culture, 60 minutes after FITC-dextran (40 kDa)
Description: The upper chamber of Transwell (diameter: 6.5 mm, pore size: 0.4 μm: Corning Incorporated) coated with collagen and fibronectin was seeded with human retinal vascular endothelial cells (HRMECs) (Cell Systems) at a cell density of 5×10^4 cells/well, and the cells were cultured in Endothelial Cell Growth Medium MV 2 (PromoCell GmbH) under a 5% CO2 atmosphere at 37° C. for 6 days. Then, to the upper chamber and lower chamber of the Transwell, Compound 1 at a final concentration of 0 nM, 0.3 nM, 3 nM, or 30 nM, which had been prepared using 0.001% dimethyl sulfoxide-containing Endothelial Cell Growth Medium MV 2 as a vehicle, was added, and culture was continued. A well to which only the vehicle was added was used as a control. After 60 minutes of culture, 1 mg/mL of fluorescein isothiocyanate (FITC)-dextran (40 kDa: Sigma-Aldrich) was added to the upper chamber of the Transwell, and 60 minutes later, the fluorescence intensity of the medium in the lower chamber was measured to measure the amount of FITC-dextran permeating the lower chamber.

[2] = system: lymphocytes in the peripheral blood; experiment: Lymphocyte count in peripheral blood, C57BL/6J strain mice; type: in vivo; conditions: C57BL/6J mice, 24 hours from final administration
Description: Seven-week-old mice (Japan SLC, Inc., C57BL/6J strain) were repeatedly orally administered Compound 1 suspended in a vehicle (0.5% MC solution) at a dose of 0.003 mg/kg, 0.01 mg/kg, 0.03 mg/kg, 0.1 mg/kg, 0.3 mg/kg, or 1 mg/kg (in terms of free form) once daily for 14 days in the same manner as in Example 1. A control was administered only the vehicle (vehicle group). Experiments were performed using 5 mice in each group. At 24 hours from the final administration, blood was collected from the abdominal vena cava under isoflurane anesthesia using a heparin-treated syringe, and was mixed with ethylenediaminetetraacetic acid dipotassium salt (EDTA.2K) (1 mg). The lymphocyte count in the collected blood was measured using XT-2000iv (Sysmex Corporation).

[3] = system: laser-induced choroidal neovascularization (CNV) model; experiment: Laser-induced CNV model: fluorescein angiography (FA) grade; type: in vivo, mice; conditions: 0.03 mg/kg or 0.3 mg/kg orally once daily, each group; Day 14 after laser irradiation
Description: A Mydrin-P ophthalmic solution (Santen Pharmaceutical Co., Ltd., Mydrin is a trademark) was dropped into the right eye of 8-week-old mice (Japan SLC, Inc., C56BL/6J strain) to cause mydriasis. A solution obtained by diluting a 7:1 mixed anesthetic solution of ketamine and xylazine 10-fold with physiological saline was administered at 10 mL/kg into the femoral muscle. After that, a 0.1% Hyalein (trademark) ophthalmic solution (Santen Pharmaceutical Co., Ltd.) was dropped into the eye so as to prevent the eyeball from drying. […]
Sampling was performed on the 14th day after the laser irradiation. The mice were anesthetized with 10 mL/kg of a solution obtained by diluting a 7:1 mixed anesthetic solution of ketamine and xylazine 10-fold with physiological saline, and then 0.1 mL of a 10-fold dilution of fluorescein (Alcon Japan Ltd.) was administered into the tail vein of the mice, followed by fluorescence fundus photography using Micron 4 (Phoenix Research Laboratories, Inc. Pleasanton, Calif., USA).
In FIG. 1 (a), Day 0 indicates images taken on the day of the laser irradiation, and Day 14 indicates images taken on the 14th day. In addition, for the image of each group on Day 14, an FA grade was determined for each laser irradiation site in accordance with grade criteria shown in Table 1 to evaluate the leakage of a fluorescent dye from a neovascularization site. […]

S1P5 receptor = S1P5 receptor (Homo sapiens, UniProt Q9H228); conditions: GTP[γ35S] binding assay; report PLoS One, 2014, 9(10), e110819; read-out: EC50 for S1P5 receptor agonist activity; cited from earlier work
Sequence of S1P5 receptor (Q9H228 whole entry): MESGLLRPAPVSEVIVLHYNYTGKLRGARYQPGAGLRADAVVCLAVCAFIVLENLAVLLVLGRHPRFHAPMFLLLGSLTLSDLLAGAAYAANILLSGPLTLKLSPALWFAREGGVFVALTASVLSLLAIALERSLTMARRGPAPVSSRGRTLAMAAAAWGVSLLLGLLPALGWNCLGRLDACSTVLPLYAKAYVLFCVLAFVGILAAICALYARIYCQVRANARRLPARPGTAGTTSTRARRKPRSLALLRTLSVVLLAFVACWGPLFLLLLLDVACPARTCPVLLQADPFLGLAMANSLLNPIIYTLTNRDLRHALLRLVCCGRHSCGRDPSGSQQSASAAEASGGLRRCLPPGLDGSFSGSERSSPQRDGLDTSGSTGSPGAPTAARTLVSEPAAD

## C[C@H](Oc1ccc(-c2nc(-c3ccc4[nH]cnc4c3)no2)cc1C(F)(F)F)C(F)(F)F.Cl [Compound 1, 5-{5-[3-(trifluoromethyl)-4-{[(2S)-1,1,1-trifluoropropan-2-yl]oxy}phenyl]-1,2,4-oxadiazol-3-yl}-1H-benzimidazole monohydrochloride]
[1]
  amount of FITC-dextran permeating the lower chamber (fluorescence intensity): significantly decreased the amount of FITC-dextran permeating the lower chamber
[2]; 0.03 mg/kg orally once daily for 14 days
  lymphocytes in the peripheral blood: not found to have a significant action
[2]; 0.1 mg/kg or more orally once daily for 14 days
  lymphocytes in the peripheral blood: significantly decreased lymphocytes in the peripheral blood
[3]
  FA grade as compared to the vehicle group: significantly lowered
S1P5 receptor
  EC50: 7.5 nM
